Laboratory results as given in patent US4723004A, “Cephem compounds” (priority 1984, dated 1988).
“Also recorded” adds a separate entry of the source. Read-outs that look alike come from different tables or passages of the source. One block for each compound: values may come before it.

Tests used:
[1] = Acute toxicity, subcutaneous administration to mice; type: in vivo; details: for toxicity: conclusion from 1 g/kg s.c. in mice; for death: mice, subcutaneous, 1 g/kg, sodium salt
Escherichia coli CP 13 = assay: Antibacterial spectrum, growth inhibition zone (Table 4); type: cell-based; details: CP13, E. coli CP 13, compound (II) 1000 μg/ml, pH 7.0, sodium salt, read-out: Diameter of growth inhibition zone
Method: (§1) Culture medium: Nutrient agar medium (pH 7.0) containing diaminopimeric
(§2) Concentration of the compound (II): 1000 μg/ml.

[2] = test system: Pseudomonas aeruginosa C141; assay: as above; type: cell-based; details: compound (II) 1000 μg/ml, pH 7.0, sodium salt, read-out: Diameter of growth inhibition zone
Method: as §1, §2

[3] = test system: Staphylococcus aureus FDA 209P; assay: as above; type: cell-based; details: FDA209P, compound (II) 1000 μg/ml, pH 7.0, sodium salt, read-out: Diameter of growth inhibition zone
Method: as §1, §2

[4] = test system: Pseudomonas aeruginosa C141; assay: Stability to β-lactamases, disc method, non-added control (Table 5); type: cell-based; details: read-out: Diameter of growth inhibition zone (by the disc method); for zone of inhibition at 100 µg/mL: P. aeruginosa C141, other compounds 100 μg/ml
Method: (§3) Concentration of the compound (II) 1000 μg/ml
(§4) Concentration of the other compounds: 100 μg/ml
(§5) Strain used: Pseudomonas aeruginosa C141
as §1

Penicillinase [5] = target: T1, Penicillinase (Bacillus cereus, UniProt P10424); assay: Stability to β-lactamases, disc method, penicillinase (Table 5); type: cell-based; details: penicillinase 0.048 unit/ml, P. aeruginosa C141
T1 construct: purchased Calbio Chemical, U.S.A; host or cells: Bacillus cereus
Method: as §3, §4, §5, §1
(Note 3) Penicillinase (Calbio Chemical, U.S.A.) derived from Bacillus

Cephalosporinase [6] = target: T2, Cephalosporinase (Enterobacter cloacae, UniProt P05364); assay: Stability to β-lactamases, disc method, cephalosporinase (Table 5); type: cell-based; details: cephalosporinase 0.025 unit/ml, P. aeruginosa C141
T2 construct: host or cells: Enterobacter cloacae
Method: as §3, §4, §5, §1
(Note 4) The enzyme is derived from Enterobacter cloacae, 0.025 unit/ml.

β-lactamases = assay: Stability to β-lactamases (statement in words); type: cell-based
gram-negative bacteria = assay: Antibacterial activity against gram-negative bacteria (statement in words); type: cell-based
[7] = Stability in aqueous solution; type: physicochemical; details: for Stability: hydrochloride(s)
[8] = test system: Alcaligenes faecalis IFO 13111; assay: MIC, antibacterial spectrum (nutrient agar); type: cell-based; details: IFO13111, nutrient agar pH 7.0, 10^6 CFU/ml, sodium salt, read-out: Minimal inhibitory concentration
Text: (§6) | Culture medium: Nutrient agar (pH 7.0) concentration of microorganisms | inoculated: 10^6 CFU (colony forming unit)/ml.

[9] = test system: Bacillus megaterium IFO 12108; assay: MIC, antibacterial spectrum (nutrient agar); type: cell-based; details: Priestia megaterium, IFO12108, nutrient agar pH 7.0, 10^6 CFU/ml, sodium salt, read-out: Minimal inhibitory concentration
Text: as §6

[10] = test system: Bacillus subtilis NIHJ PCI219; assay: MIC, antibacterial spectrum (nutrient agar); type: cell-based; details: NIHJPCI219, nutrient agar pH 7.0, 10^6 CFU/ml, sodium salt, read-out: Minimal inhibitory concentration
Text: as §6

[11] = test system: Escherichia coli NIHJ JC-2; assay: MIC, antibacterial spectrum (nutrient agar); type: cell-based; details: NIHJJC2, nutrient agar pH 7.0, 10^6 CFU/ml, sodium salt, read-out: Minimal inhibitory concentration
Text: as §6

[12] = test system: Klebsiella pneumoniae IFO 3317; assay: MIC, antibacterial spectrum (nutrient agar); type: cell-based; details: IFO3317, nutrient agar pH 7.0, 10^6 CFU/ml, sodium salt, read-out: Minimal inhibitory concentration
Text: as §6

[13] = test system: Proteus mirabilis ATCC 21100; assay: MIC, antibacterial spectrum (nutrient agar); type: cell-based; details: ATCC21100, nutrient agar pH 7.0, 10^6 CFU/ml, sodium salt, read-out: Minimal inhibitory concentration
Text: as §6

[14] = test system: Proteus vulgaris IFO 3988; assay: MIC, antibacterial spectrum (nutrient agar); type: cell-based; details: IFO3988, nutrient agar pH 7.0, 10^6 CFU/ml, sodium salt, read-out: Minimal inhibitory concentration
Text: as §6

[15] = test system: Pseudomonas aeruginosa IFO 3080; assay: MIC, antibacterial spectrum (nutrient agar); type: cell-based; details: IFO3080, nutrient agar pH 7.0, 10^6 CFU/ml, sodium salt, read-out: Minimal inhibitory concentration
Text: as §6

[16] = test system: Salmonella typhimurium IFO 12529; assay: MIC, antibacterial spectrum (nutrient agar); type: cell-based; details: Salmonella enterica, nutrient agar pH 7.0, 10^6 CFU/ml, sodium salt, read-out: Minimal inhibitory concentration
Text: as §6

[17] = test system: Serratia marcescens IFO 12648; assay: MIC, antibacterial spectrum (nutrient agar); type: cell-based; details: IFO12648, nutrient agar pH 7.0, 10^6 CFU/ml, sodium salt, read-out: Minimal inhibitory concentration
Text: as §6

[18] = test system: Staphylococcus aureus FDA 209P; assay: MIC, antibacterial spectrum (nutrient agar); type: cell-based; details: FDA209P, nutrient agar pH 7.0, 10^6 CFU/ml, sodium salt, read-out: Minimal inhibitory concentration
Text: as §6

Escherichia coli PG8 = assay: Stability to β-lactamases, disc method, non-added control (Table 2); type: cell-based; details: PG8, read-out: Diameter of growth inhibition zone (by the disc method)
Method: (§7) Note: Used concentration of the compound; 100 µg/ml Employed strain;
(§8) Escherichia coli PG8 Culture medium; Nutrient agar medium (pH 7.0)
(§9) containing diaminopimelic acid (20 mg/l)

Penicillinase [19] = target: T1, Penicillinase; assay: Stability to β-lactamases, disc method, penicillinase (Table 2); type: cell-based; details: penicillinase 0.048 unit/ml; E. coli PG8; compound 100 g/ml (so in the source)
Method: as §7, §8, §9
(Note 2) Penicillinase derived from Bacillus cereus (produced by Calbio
Chemical, U.S.A.)0.048 unit/ml.

Cephalosporinase [20] = target: T2, Cephalosporinase; assay: Stability to β-lactamases, disc method, cephalosporinase (Table 2); type: cell-based; details: cephalosporinase 0.025 unit/ml; E. coli PG8; compound 100 g/ml (so in the source)
Method: as §7, §8, §9
(Note 3) Cephalosprinase is derived from Enterobacter cloacae, 0.025

gram-positive bacteria = assay: Antibacterial activity against gram-positive bacteria (statement in words); type: cell-based
Solubility = details: sodium salt

T2 sequence (P05364 21-381): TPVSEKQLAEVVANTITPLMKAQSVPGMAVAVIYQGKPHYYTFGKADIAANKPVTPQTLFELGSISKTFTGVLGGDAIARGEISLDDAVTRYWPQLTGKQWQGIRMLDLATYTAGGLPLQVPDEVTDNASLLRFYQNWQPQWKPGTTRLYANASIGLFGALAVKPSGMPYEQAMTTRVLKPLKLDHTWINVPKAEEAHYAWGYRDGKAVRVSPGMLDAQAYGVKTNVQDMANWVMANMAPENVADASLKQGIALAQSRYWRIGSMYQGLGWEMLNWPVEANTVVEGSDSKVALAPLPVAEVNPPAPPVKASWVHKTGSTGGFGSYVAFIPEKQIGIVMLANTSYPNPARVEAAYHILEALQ
T1 sequence (P10424 44-306): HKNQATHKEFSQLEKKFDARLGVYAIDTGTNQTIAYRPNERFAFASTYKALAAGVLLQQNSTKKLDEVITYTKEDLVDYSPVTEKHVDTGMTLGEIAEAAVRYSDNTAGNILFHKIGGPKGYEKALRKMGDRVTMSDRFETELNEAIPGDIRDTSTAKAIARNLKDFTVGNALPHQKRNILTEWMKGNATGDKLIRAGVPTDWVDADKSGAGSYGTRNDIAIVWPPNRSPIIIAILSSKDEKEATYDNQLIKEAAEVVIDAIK

Compound: N[C@]1(NC=O)C(=O)N2C(C(=O)O)=C(CO)CSC21 (stereo partly drawn) [compound (II)]
toxicity [1]: low toxicity
death [1]: no death was observed
zone of inhibition at 1000 µg/mL (Escherichia coli CP 13): 11 mm
zone of inhibition at 1000 µg/mL [2]: 19 mm
zone of inhibition at 1000 µg/mL [3]: < 8 mm
zone of inhibition at 1000 µg/mL ([4]; P. aeruginosa C141, compound (II) 1000 μg/ml): 19 mm
Diameter of growth inhibition zone (by the disc method) (Penicillinase [5]; compound (II) 1000 μg/ml): 19 mm
Diameter of growth inhibition zone (by the disc method) (Cephalosporinase [6]; compound (II) 1000 μg/ml): 19 mm
Stability to β-lactamases (β-lactamases): stable to various β-lactamases
antibacterial activity (gram-negative bacteria): exhibits antibacterial activity; also recorded: exhibits antimicrobial activity
stability in aqueous solution ([7]; compared with a cephem compound which is acetylated (--CH2OCOCH3 at 3-position)): remarkably more stable in aqueous solution

Compound: CC(N)C(=O)NC(C)C(=O)NC(C)C(=O)NC(CCCNC(=N)N)C(O)CC(=O)OCC1=C(C(=O)O)N2C(=O)[C@@H](NC(=O)CCCC(N)C(=O)O)C2SC1 (stereo partly drawn) [TAN-547F]
Stability ([7]; acidic aqueous solution): Slightly unstable
Stability ([7]; basic aqueous solution): Unstable
Stability ([7]; neutral aqueous solution): Slightly unstable

Compound: CC(N)C(=O)NC(CCCNC(=N)N)C(O)CC(=O)OCC1=C(C(=O)O)N2C(=O)[C@@H](NC(=O)CCCC(N)C(=O)O)C2SC1 (stereo partly drawn) [TAN-547D]
Stability ([7]; acidic aqueous solution): Slightly unstable
Stability ([7]; basic aqueous solution): Unstable
Stability ([7]; neutral aqueous solution): Slightly unstable

Compound: NC(CCCC(=O)N[C@]1(NC=O)C(=O)N2C(C(=O)O)=C(CO)CSC21)C(=O)O (stereo partly drawn) [7-FA-DCPC, 7-formylamino-deacetylcephalosporin C]
MIC [8]: 12.5 mg/L
MIC [9]: 100 mg/L
MIC [10]: 100 mg/L
MIC [11]: 50 mg/L
MIC [12]: 50 mg/L
MIC [13]: 12.5 mg/L
MIC [14]: 25 mg/L
MIC [15]: 100 mg/L
MIC [16]: 25 mg/L
MIC [17]: 25 mg/L
MIC [18]: 100 mg/L
zone of inhibition at 100 µg/mL (Escherichia coli PG8): 23 mm
Diameter of growth inhibition zone (by the disc method) (Penicillinase [19]): 23 mm
Diameter of growth inhibition zone (by the disc method) (Cephalosporinase [20]): 23 mm
toxicity [1]: low toxicity
death [1]: no death was observed
Stability to β-lactamases (β-lactamases): stable to various β-lactamases
Stability to β-lactamases (β-lactamases; listed as compound (IV)): stable to β-lactamase producing strains
antibacterial activity (gram-positive bacteria): exhibits antibacterial activity
antibacterial activity (gram-positive bacteria; listed as compound (IV)): exhibits antimicrobial activity
antibacterial activity (gram-negative bacteria): exhibits antibacterial activity
antibacterial activity (gram-negative bacteria; listed as compound (IV)): exhibits antimicrobial activity
Solubility (Solubility; diethyl ether and ethyl acetate): Sparingly soluble
Solubility (Solubility; methanol): Soluble
Solubility (Solubility; water): Readily soluble

Compound: CO[C@@]1(NC(=O)CCC[C@@H](N)C(=O)O)C(=O)N2C(C(=O)O)=C(COC(N)=O)CS[C@@H]21 [CMC, Cephamycin C]
zone of inhibition at 100 µg/mL (Escherichia coli PG8): 30 mm
Diameter of growth inhibition zone (by the disc method) (Penicillinase [19]): 30 mm
Diameter of growth inhibition zone (by the disc method) (Cephalosporinase [20]): < 8 mm
zone of inhibition at 100 µg/mL [4]: 27.5 mm
Diameter of growth inhibition zone (by the disc method) (Penicillinase [5]; other compounds 100 μg/ml): 27.5 mm
Diameter of growth inhibition zone (by the disc method) (Cephalosporinase [6]; other compounds 100 μg/ml): < 8 mm

Compound: N[C@H](CCCC(=O)N[C@@H]1C(=O)N2C(C(=O)O)=C(CO)CS[C@H]12)C(=O)O [DCPC, deacetylcephalosporin C]
zone of inhibition at 100 µg/mL (Escherichia coli PG8): 30 mm
Diameter of growth inhibition zone (by the disc method) (Penicillinase [19]): 30 mm
Diameter of growth inhibition zone (by the disc method) (Cephalosporinase [20]): < 8 mm
zone of inhibition at 100 µg/mL [4]: 30 mm
Diameter of growth inhibition zone (by the disc method) (Penicillinase [5]; other compounds 100 μg/ml): 30 mm
Diameter of growth inhibition zone (by the disc method) (Cephalosporinase [6]; other compounds 100 μg/ml): < 8 mm

The next lines start with the values.

Stability ([7]; acidic aqueous solution): Unstable
Stability ([7]; basic aqueous solution): Unstable
Stability ([7]; neutral aqueous solution): slightly unstable
Compound: CC(N)C(=O)NC(C)C(=O)NC(C)C(=O)NC(CCCNC(=N)N)C(O)CC(=O)OCC1=C(C(=O)O)N2C(=O)[C@@](NC=O)(NC(=O)CCCC(N)C(=O)O)C2SC1 (stereo partly drawn) [TAN-547C]

Stability ([7]; acidic aqueous solution): Slightly unstable
Stability ([7]; basic aqueous solution): Unstable
Stability ([7]; neutral aqueous solution): Slightly unstable
Compound: CC(N)C(=O)NC(C)C(=O)NC(CCCNC(=N)N)C(O)CC(=O)OCC1=C(C(=O)O)N2C(=O)[C@@H](NC(=O)CCCC(N)C(=O)O)C2SC1 (stereo partly drawn) [TAN-547E]

Stability ([7]; acidic aqueous solution): Unstable
Stability ([7]; basic aqueous solution): Unstable
Stability ([7]; neutral aqueous solution): slightly unstable
Compound: CC(N)C(=O)NC(C)C(=O)NC(CCCNC(=N)N)C(O)CC(=O)OCC1=C(C(=O)O)N2C(=O)[C@@](NC=O)(NC(=O)CCCC(N)C(=O)O)C2SC1 (stereo partly drawn) [TAN-547B]

Stability ([7]; acidic aqueous solution): Unstable
Stability ([7]; basic aqueous solution): Unstable
Stability ([7]; neutral aqueous solution): slightly unstable
Compound: CC(N)C(=O)NC(CCCNC(=N)N)C(O)CC(=O)OCC1=C(C(=O)O)N2C(=O)[C@@](NC=O)(NC(=O)CCCC(N)C(=O)O)C2SC1 (stereo partly drawn) [TAN-547A]
